# Counter-ions that a name gives are not always drawn.
# Tests used:
# [1] = tested on: histamine type bronchospasms; test: anti-bronchoconstrictor activity in guineapigs, KONZETT and ROSSLER technique, histamine-induced bronchospasm; type: in vivo; settings: histamine 5 μg/kg^-1 i.v.; for inhibition at 1 mg/kg / inhibition at 5 mg/kg: iv, anaesthetised guineapigs, read-out: Percentage Inhibition
# Description: (§1) The anti-bronchoconstrictor activity of the compounds of the invention is evaluated in guineapigs by the KONZETT and ROSSLER technique.
# (§2) After being anaesthetised with ethyl carbamate and submitted to tracheotomy, the animals are given artificial breathing at constant volume and the intertracheal pressure is recorded, which makes an indirect measurement of the total pulmonary resistance possible. Histamine (5 μg/kg^-1 i.v.) is administered before, and at different time intervals after, intravenous administration of the compounds of the invention.
# (§3) The activity of the product under study is evaluated by comparing the amplitudes of the bronchospasms before and after treatment and calculating the percentage change. The duration of action of the compounds under study has also been observed. (Table I). This table also contains an acute toxicity rating (LD50) determined by oral administration in mice.
# [2] = tested on: serotoninergic bronchospasms; test: bronchospasm experiment repeated replacing histamine with serotonin; type: in vivo, guineapigs; settings: iv, 1 h; compound 5 mg/kg^-1 intravenously; serotonin 20 μg/kg^-1 I.V.; observed during 60 minutes
# Description: as §1, §2, §3
# In addition, the bronchosparm experiment was repeated, but replacing histamine with serotonine, (20 μg/kg^-1, I.V.).
# [3] = acute toxicity rating (LD50) by oral administration in mice; settings: mouse, in vivo
# Description: as §3
SMILES,Duration (duration of action) ([1]; compound 1 mg/kg^-1 I.V.) [min],Duration (duration of action) ([1]; compound 5 mg/kg^-1 I.V.) [min],inhibition at 1 mg/kg ([1]; compound 1 mg/kg^-1 I.V.) [%],inhibition at 5 mg/kg ([1]; compound 5 mg/kg^-1 I.V.) [%],inhibition at 5 mg/kg [2] [%],LD50 [3] [mg/kg]
"CCOC(CN1CCN(CC23Oc4ccccc4C2CCCC3O)CC1)c1ccccc1 (centres unmarked) [Compound 1, 1,2,3,4,4a,9b-hexahydro-4a-(1-[4-(2-ethoxy-2-phenyl)ethyl]piperazinyl)methyl-4-dibenzofuranol]",> 60,> 60,87.7 ± 6.6,100,87.6,–
"CCOC(CN1CCN(CC23Oc4ccc(F)cc4C2CCCC3O)CC1)c1ccccc1 (centres unmarked) [Compound 2, 1,2,3,4,4a,9b-hexahydro-4a-(1-[4-(2-ethoxy-2-phenyl)ethyl]piperazinyl)methyl-8-fluoro-4-dibenzofuranol, 2 HCl]",–,> 60,–,95 ± 3.1,–,900
CCOC(CN1CCN(CC23Oc4c(OC)cccc4C2CCCC3=O)CC1)c1ccccc1 (centres unmarked) [Compound 3],–,> 45,–,97.5 ± 2.5,–,320
"CCOC(CN1CCN(CC23Oc4ccccc4C2CCCC3=O)CC1)c1ccccc1 (centres unmarked) [Compound 5, 1,2,3,4,4a,9b-hexahydro-4a-(1-[4-(2-ethoxy-2-phenyl)ethyl]piperazinyl)methyl-4-dibenzofuranone]",–,> 45,–,80.2 ± 9.9,–,900
CCOC(CN1CCN(CC23Oc4ccc(OC)cc4C2CCCC3O)CC1)c1ccccc1 (centres unmarked) [Compound 6],–,> 45,–,48.2 ± 9.2,–,900
COC(CN1CCN(CC23Oc4ccccc4C2CCCC3O)CC1)c1ccccc1 (centres unmarked) [Compound 8],> 60,–,95.5 ± 4.6,–,–,480

# From patent US4409221A, “1,2,3,4,4a,9b-Hexahydro-4a-piperazinylmethyl-4-dibenzofuranone or -dibenzofuranol derivatives” (Riom Laboratories - Cerm S.A., priority 1981, dated 1983)
